Reference: the NIST ThermoML archive (doi:10.1016/j.tca.2008.05.002)
± gives the expanded uncertainty stated by the source.

Tests used:
[1] = molar heat capacity at constant pressure; conditions: 101.33 kPa, Small (less than 1 g) adiabatic calorimetry
[2] = Molar enthalpy of transition or fusion; conditions: Adiabatic calorimetry

## CCCCn1cc[n+](C)c1.O=[N+]([O-])[O-] [1-butyl-3-methylimidazolium nitrate]
[1]; 5 K, Crystal 4
  molar heat capacity at constant pressure: 0.536 ± 0.033 J/K/mol
[1]; 10 K, Crystal 4
  molar heat capacity at constant pressure: 4.46 ± 0.091 J/K/mol
[1]; 15 K, Crystal 4
  molar heat capacity at constant pressure: 11.93 ± 0.19 J/K/mol
[1]; 20 K, Crystal 4
  molar heat capacity at constant pressure: 21.74 ± 0.28 J/K/mol
[1]; 25 K, Crystal 4
  molar heat capacity at constant pressure: 32.7 ± 0.35 J/K/mol
[1]; 30 K, Crystal 4
  molar heat capacity at constant pressure: 43.8 ± 0.32 J/K/mol
[1]; 35 K, Crystal 4
  molar heat capacity at constant pressure: 54.44 ± 0.37 J/K/mol
[1]; 40 K, Crystal 4
  molar heat capacity at constant pressure: 64.5 ± 0.42 J/K/mol
[1]; 45 K, Crystal 4
  molar heat capacity at constant pressure: 73.88 ± 0.47 J/K/mol
[1]; 50 K, Crystal 4
  molar heat capacity at constant pressure: 82.59 ± 0.52 J/K/mol
[1]; 55 K, Crystal 4
  molar heat capacity at constant pressure: 90.63 ± 0.58 J/K/mol
[1]; 60 K, Crystal 4
  molar heat capacity at constant pressure: 97.94 ± 0.58 J/K/mol
[1]; 70 K, Crystal 4
  molar heat capacity at constant pressure: 111.1 ± 0.67 J/K/mol
[1]; 80 K, Crystal 4
  molar heat capacity at constant pressure: 122.4 ± 0.75 J/K/mol
[1]; 90 K, Crystal 4
  molar heat capacity at constant pressure: 132.2 ± 0.75 J/K/mol
[1]; 100 K, Crystal 4
  molar heat capacity at constant pressure: 141 ± 0.75 J/K/mol
[1]; 110 K, Crystal 4
  molar heat capacity at constant pressure: 149.2 ± 0.83 J/K/mol
[1]; 120 K, Crystal 4
  molar heat capacity at constant pressure: 156.9 ± 0.83 J/K/mol
[1]; 130 K, Crystal 4
  molar heat capacity at constant pressure: 164.4 ± 0.83 J/K/mol
[1]; 140 K, Crystal 4
  molar heat capacity at constant pressure: 171.8 ± 0.92 J/K/mol
[1]; 150 K, Crystal 4
  molar heat capacity at constant pressure: 179.1 ± 0.92 J/K/mol
[1]; 160 K, Crystal 4
  molar heat capacity at constant pressure: 186.5 ± 0.92 J/K/mol
[1]; 170 K, Crystal 4
  molar heat capacity at constant pressure: 194.1 ± 1 J/K/mol
[1]; 180 K, Crystal 4
  molar heat capacity at constant pressure: 202 ± 1 J/K/mol
[1]; 190 K, Crystal 4
  molar heat capacity at constant pressure: 210.1 ± 1.1 J/K/mol
[1]; 200 K, Crystal 4
  molar heat capacity at constant pressure: 218.6 ± 1.1 J/K/mol
[1]; 210 K, Crystal 4
  molar heat capacity at constant pressure: 227.3 ± 1.1 J/K/mol
[1]; 220 K, Crystal 4
  molar heat capacity at constant pressure: 236.2 ± 1.2 J/K/mol
[1]; 230 K, Crystal 4
  molar heat capacity at constant pressure: 245.1 ± 1.2 J/K/mol
[1]; 240 K, Crystal 4
  molar heat capacity at constant pressure: 254 ± 1.2 J/K/mol
[1]; 250 K, Crystal 4
  molar heat capacity at constant pressure: 262.9 ± 1.2 J/K/mol
[1]; 260 K, Crystal 4
  molar heat capacity at constant pressure: 271.8 ± 1.2 J/K/mol
[1]; 270 K, Crystal 4
  molar heat capacity at constant pressure: 280.7 ± 1.3 J/K/mol
[1]; 278.2 K, Crystal 3
  molar heat capacity at constant pressure: 288 ± 1.3 J/K/mol
[1]; 278.2 K, Crystal 4
  molar heat capacity at constant pressure: 288 ± 1.3 J/K/mol
[1]; 280 K, Crystal 3
  molar heat capacity at constant pressure: 289.6 ± 1.3 J/K/mol
[1]; 285 K, Crystal 3
  molar heat capacity at constant pressure: 294.1 ± 1.4 J/K/mol
[1]; 288.1 K, Crystal 2
  molar heat capacity at constant pressure: 296.8 ± 1.4 J/K/mol
[1]; 288.1 K, Crystal 3
  molar heat capacity at constant pressure: 296.8 ± 1.4 J/K/mol
[1]; 290 K, Crystal 2
  molar heat capacity at constant pressure: 298.6 ± 1.4 J/K/mol
[1]; 292.2 K, Crystal 1
  molar heat capacity at constant pressure: 300.5 ± 1.4 J/K/mol
[1]; 292.2 K, Crystal 2
  molar heat capacity at constant pressure: 300.5 ± 1.4 J/K/mol
[1]; 295 K, Crystal 1
  molar heat capacity at constant pressure: 303 ± 1.4 J/K/mol
[1]; 298.15 K, Crystal 1
  molar heat capacity at constant pressure: 305.8 ± 1.4 J/K/mol
[1]; 300 K, Crystal 1
  molar heat capacity at constant pressure: 307.5 ± 1.4 J/K/mol
[1]; 309.16 K, Crystal 1
  molar heat capacity at constant pressure: 315.6 ± 1.5 J/K/mol
[1]; 309.16 K, Liquid
  molar heat capacity at constant pressure: 357.7 ± 1.7 J/K/mol
[1]; 310 K, Liquid
  molar heat capacity at constant pressure: 358 ± 1.7 J/K/mol
[1]; 320 K, Liquid
  molar heat capacity at constant pressure: 361.8 ± 1.7 J/K/mol
[1]; 330 K, Liquid
  molar heat capacity at constant pressure: 365.8 ± 1.7 J/K/mol
[1]; 340 K, Liquid
  molar heat capacity at constant pressure: 369.8 ± 1.7 J/K/mol
[1]; 350 K, Liquid
  molar heat capacity at constant pressure: 374.1 ± 1.7 J/K/mol
[1]; 360 K, Liquid
  molar heat capacity at constant pressure: 378.5 ± 1.7 J/K/mol
[1]; 370 K, Liquid
  molar heat capacity at constant pressure: 383 ± 1.7 J/K/mol
[2]; Crystal 1
  Molar enthalpy of transition or fusion: 4.3 ± 0.0502 kcal/mol
[2]; Crystal 2
  Molar enthalpy of transition or fusion: 0.0359 ± 0.0239 kcal/mol
[2]; Crystal 3
  Molar enthalpy of transition or fusion: 0.086 ± 0.0239 kcal/mol
[2]; Crystal 4
  Molar enthalpy of transition or fusion: 0.497 ± 0.0239 kcal/mol
